Measured values reported in patent US20090197944A1, “AGENT FOR IMPROVING MUSCLE FORCE” (KAO CORPORATION, priority 2006, published 2009).

These compounds were tested on isolated soleus muscle (assay: Electrical stimulation of isolated muscle (fatigue resistance)). Conditions: 50 μM in Krebs solution, 37° C., equilibrated three minutes, stimulation 330 ms/2-sec, 40 Hz; vs control solution.
Format: ex vivo tissue, mice
Description: Mice were bred in a similar manner to that for the control group of Test Example 1. Thereafter, soleus muscle was removed from each mouse. The isolated soleus muscle was fixed to a transducer (FORT100, product of WPI) in 37° C. Krebs solution (aeration: 95%-oxygen, 5%-carbon dioxide). The effect of catechins on the isolated muscle was analyzed. Specifically, each of eight catechin species (catechin, epicatechin, gallocatechin, epigallocatechin, catechin gallate, epicatechin gallate, gallocatechin gallate, and epigallocatechin gallate) was dissolved in a Krebs solution to a concentration of 50 μM. Each muscle piece was equilibrated in each solution for three minutes, and electrically stimulated (330 ms/2-sec). The frequency of stimulation was 40 Hz. […] A Krebs solution to which no catechin species had been added was employed as a control solution.

SMILES | muscle force after 1 minute stimulation as fatigue index (ratio to muscle force at the start of electrical stimulation defined as 1)
O=C(O[C@@H]1Cc2c(O)cc(O)cc2O[C@@H]1c1ccc(O)c(O)c1)c1cc(O)c(O)c(O)c1 [epicatechin gallate] | improved muscle fatigue resistance
O=C(O[C@@H]1Cc2c(O)cc(O)cc2O[C@H]1c1cc(O)c(O)c(O)c1)c1cc(O)c(O)c(O)c1 [gallocatechin gallate] | improved muscle fatigue resistance
O=C(O[C@@H]1Cc2c(O)cc(O)cc2O[C@@H]1c1cc(O)c(O)c(O)c1)c1cc(O)c(O)c(O)c1 [epigallocatechin gallate] | improved muscle fatigue resistance
